The values that follow come from patent US11642366B2, “Methods for preventing a serious health consequence and/or tissue damage after exposure to ionizing radiation and/or chemotherapy” (GLYCOMIRA THERAPEUTICS, INC., priority 2018, dated 2023).

One experiment relates to myeloperoxidase (MPO). The experiment is described as follows: Study (1): tissue concentrations of myeloperoxidase (MPO) in tongue homogenate by ELISA. It is filed as in vivo, mouse (BDF1 male). The note with it: 30 mg/kg SQ once daily day -2 to 7; 20 Gy; day 8; vehicle/irradiated 50%. An excerpt: Prior to the x-ray irradiation, all animals except the healthy control group were gently guided into a restrainer for short durations. This behavioral training was held once daily for two days and it was designed to reduce potential stresses on the animals during the once daily irradiation session. For head-only irradiation, the restrainers containing the animals were shielded with a lead block that had rectangular holes to expose the head. X-rays were generated by RS2000 Biological Research Irradiator (Rad Source Technologies, GA) with parameters set as 160 kV/25 mA. For study (1), the animals were divided into 4 groups (10 mice for each group)—vehicle (phosphate buffered saline) treated healthy, vehicle treated ROM, GM-1111 treated ROM, and HA treated ROM. […]
(§1) Body weights of the animals were measured every other day from 2 days prior to the first irradiation day (day 0). Clinical signs were monitored every day during the entire experimental period. […]
All tongue samples were thawed on ice prior to homogenization. […] The total protein concentration of the supernatant was measured for each sample using the Pierce™ Protein Assay kit. Tissue concentrations of IL-6 and myeloperoxidase (MPO) were then determined with commercially available ELISA kits: IL-6 (BioLegend, CA) and MPO (R&D Systems, MN). […]
For orientation: An ELISA detects its analyte on a solid surface through an enzyme-linked reagent.

In experiment [1] the test system is ROM (radiation induced oral mucositis) in the tongue. Nature of the experiment: Study (1): single dose x-ray irradiation induced ROM, necropsy and histology of the tongue. Particulars: 30 mg/kg SQ once daily day -2 to 7. It is filed as in vivo, mouse (BDF1 male).
From the text: Modified hyaluronan (referred to herein as GM-1111) used to treat the animals is a sulfated hyaluronan methylated at the primary C-6 hydroxyl position of an N-acetyl-glucosamine residue and having a molecular weight of approximately 5.5 kDa.
Approximately 7-8 weeks of old male BDF1 (B6D2F1) mice were purchased from Charles River Laboratories (MA). These animals were housed in a room with fully controlled environment (temperature, humidity, and light/dark cycle). The feed and water were freely accessible to all animals throughout the entire study period. All animals were acclimatized for one week prior to the irradiation and they were approximately 8-10 weeks old at the time of the study. The experimental protocol (16-07008) was approved by the University of Utah Institutional Animal Care and Use Committee (IACUC). […]
as §1
Histological observations were graded for each category and the sum of these grades was used to designate the severity of each sample. The resulting severity scores from all irradiation groups were analyzed with Kruskal-Wallis test followed by Dunnett-type multiple comparison test using nparcomp package. […]

As for Hyaluronic acid [HA], in the experiment with myeloperoxidase (MPO), the “Animals with higher than normal range of MPO in the tongue” value is recorded as “about 70%”. The “Overall effect against ROM (necropsy, MPO, histology)” value in experiment [1] (20 Gy) is on record as “did not show any measurable therapeutic benefits”. For the same substance, in experiment [1] (20 Gy head-only x-ray on day 0, necropsy day 8), the “Ulcerative lesions in the tongue at necropsy (Toluidine Blue staining)” value is recorded as “severe ulcerative lesions in the tongue similar to the vehicle treated animals”.
